According to patent US20250114389A1, “NUCLEOSIDES AND NUCLEOTIDES ANALOGS AS ANTIVIRAL AGENTS” (Emory University, priority 2021, published 2025):

Assays:
SARS-CoV-2 [1] = assay: Anti-SARS-CoV-2 activity in Vero cells (virus yield inhibition); format: cell-based
[2] = format: in vitro ADME; conditions: hamster, 10 μM
Method: An aliquot of 450 μL of human, mouse or hamster plasma were exposed to 10 μM of compound and incubated at 37° C. At 0, 5, 15, 30, 60, 90 and 120 min, 50 μL of plasma sample was mixed with 200 μL of ice-cold methanol (70%). 50 μL supernatant was dried and reconstituted in 100 μL H2O. Propantheline bromide was used as positive control. The supernatant was then subjected to LC-MS analysis (LC-MS condition: Instrument: Thermo TSQ Quantiva. Column: Kinetex […] (50×2.1 mm, […]). LC buffers: A): 0.1% formic acid, and B): acetonitrile. MRM methods: (269.2-112 positive), Indinavir (IS, 614.4-421.2 positive, IS)). The stability results are shown in FIGS. 2-4 (human plasma, mouse plasma and hamster plasma, respectively). Compound A is stable in human and mouse plasma up to 2 hours and stable up to […] in hamster plasma. Compound 23 was converted to compound A in hamster plasma in less than 5 min.

Caco2 cells = conditions: read-out: Cytotoxicity CC50 Caco2
Calu3 cells = conditions: read-out: Cytotoxicity CC50 Calu3
SARS-CoV-2 [3] = assay: Anti-SARS-CoV-2 activity in Caco2 cells (virus yield inhibition); conditions: for EC50: Severe acute respiratory syndrome coronavirus 2, Caco-2, read-out: Anti-SARS-CoV-2 Activity (Caco2) EC50; for EC90: Severe acute respiratory syndrome coronavirus 2, Caco-2, read-out: Anti-SARS-CoV-2 Activity (Caco2) EC90
Vero cells = assay: Cytotoxicity in Vero cells; conditions: read-out: Cytotoxicity CC50 Vero; Vero cells
[4] = tested on: CEM (human lymphoblastoid) cells; assay: Cytotoxicity in CEM cells; format: cell-based
Method: (§1) The toxicity of the compounds was assessed in Vero, human PBM, CEM (human lymphoblastoid), MT-2, and HepG2 cells, as described previously (see Schinazi R. F., Sommadossi J.-P., Saalmann V., Cannon D. L., Xie M.-Y., Hart G. C., Smith G. A. & Hahn E. F. Antimicrob. Agents Chemother. 1990, 34, 1061-67). Cycloheximide was included as positive cytotoxic control, and untreated cells exposed to solvent were included as negative controls. The cytotoxicity IC50 was obtained from the concentration-response curve using the median effective method described previously (see Chou T.-C. & Talalay P. Adv. Enzyme Regul. 1984, 22, 27-55; Belen'kii M. S. & Schinazi R. F. Antiviral Res. 1994, 25, 1-11).

SARS-CoV-2 [5] = assay: Anti-SARS-CoV-2 activity in Calu3 cells (virus yield inhibition); format: cell-based; conditions: Severe acute respiratory syndrome coronavirus 2, Calu-3, Table 1
[6] = Cytotoxicity in Vero cells; conditions: African green monkey, Vero kidney cells
Huh7 cells = assay: Cytotoxicity in Huh7 cells; format: cell-based
SARS-CoV-2 [7] = assay: Anti-SARS-CoV-2 activity in HAE-ALI culture; format: cell-based; conditions: Severe acute respiratory syndrome coronavirus 2; HAE air-liquid interface
SARS-CoV-2 [8] = assay: Anti-SARS-CoV-2 activity in Calu3 ALI culture; format: cell-based; conditions: Severe acute respiratory syndrome coronavirus 2, Calu-3; Calu3 air-liquid interface
human PBM cells = assay: Cytotoxicity in PBM cells; format: cell-based
Method: as §1

[9] = Cytotoxicity in CEM cells; format: cell-based, human; conditions: human, CEM lymphoblastoid cells
Method: as §1

[10] = Cytotoxicity in Huh7 cells; format: cell-based; conditions: human
[11] = Cytotoxicity in PBM cells; format: cell-based, human; conditions: human
Method: as §1

Omicron [12] = assay: Anti-Omicron activity in Calu-3; format: cell-based, SARS-CoV-2; conditions: Severe acute respiratory syndrome coronavirus 2
Omicron [13] = assay: microbe, parasite or virus in culture
[14] = Severe acute respiratory syndrome coronavirus 2, Table 2, read-out: Anti-SARS-CoV-2 activity in Vero cells EC50
[15] = Severe acute respiratory syndrome coronavirus 2, Table 2, read-out: Anti-SARS-CoV-2 activity in Vero cells EC90
[16] = Severe acute respiratory syndrome coronavirus 2, Table 1, read-out: Anti-SARS-CoV-2 Activity (Vero) EC50
[17] = Severe acute respiratory syndrome coronavirus 2, Table 1, read-out: Anti-SARS-CoV-2 Activity (Vero) EC90

## N#C[C@@]1(n2ncc(N)nc2=O)O[C@H](CO)C(O)C1O (stereo partly shown)
SARS-CoV-2 [1]; [14]
  EC50: 4000 nM
SARS-CoV-2 [1]; [15]
  EC90: 9.8 µM

## CCC(CC)COC(=O)[C@H](C)N[P@](=O)(OC[C@@H]1O[C@](C#N)(c2ccc3c(N)ncnn23)C(O)C1O)Oc1ccccc1 (stereo partly shown)
SARS-CoV-2 [1]; [14]
  EC50: < 10000 nM

## N#C[C@]1(c2ccc3c(N)ncnn23)O[C@@H](CO)C(O)C1O (stereo partly shown)
SARS-CoV-2 [1]; [14]
  EC50: > 10000 nM

## N#C[C@@]1(c2ccc3c(N)ncnn23)O[C@H](CO)C(O)C1O (stereo partly shown)
SARS-CoV-2 [1]; [14]
  EC50: < 10000 nM

## CC(C)C(=O)OC[C@H]1O[C@@](C#N)(n2ccc(N)nc2=O)[C@H](O)[C@@H]1O [Compound 23, ((2R,3S,4R,5R)-5-(4-Amino-2-oxopyrimidin-1(2H)-yl)-5-cyano-3,4-dihydroxytetrahydro-furan-2-yl)methyl isobutyrate]
[2]
  time for conversion to compound A in plasma: less than 5 min

## C[C@@H]1C[C@@H]([C@H](O)CC2CC(=O)NC(=O)C2)C(=O)[C@@H](C)C1 [Cyclohexamide]
Caco2 cells
  CC50: 10 µM
Calu3 cells
  CC50: 10 µM

## O=c1nc(NO)ccn1[C@@H]1O[C@H](CO)[C@@H](O)[C@H]1O [NHC, N^4-hydroxycytidine, reference compound]
SARS-CoV-2 [3]
  EC50: 1000 nM
  EC90: > 10000 nM
SARS-CoV-2 [1]; [16]
  EC50: 200 nM
SARS-CoV-2 [1]; [17]
  EC90: 0.42 µM
Vero cells
  CC50: 16.5 µM
[4]
  CC50: 2.6 µM
SARS-CoV-2 [5]
  EC50: 600 nM
  EC90: 2000 nM

## CCC(CC)COC(=O)[C@H](C)N[P@](=O)(OC[C@H]1O[C@@](C#N)(c2ccc3c(N)ncnn23)[C@H](O)[C@@H]1O)Oc1ccccc1 [Remdesivir, reference compound]
SARS-CoV-2 [3]
  EC50: 4 nM
  EC90: 40 nM
SARS-CoV-2 [1]; [16]
  EC50: 1000 nM
SARS-CoV-2 [1]; [17]
  EC90: 3.5 µM
SARS-CoV-2 [1]; [14]
  EC50: 1200 nM
SARS-CoV-2 [1]; [15]
  EC90: 3.6 µM
[6]
  CC50: > 100 µM
[4]
  CC50: 12 µM
Huh7 cells
  CC50: 1500 nM
SARS-CoV-2 [5]
  EC90: 600 nM
SARS-CoV-2 [7]
  EC90: 1200 nM
SARS-CoV-2 [8]
  EC50: 900 nM
  EC90: 4.6 µM
Human PBM cells
  CC50: 6.4 µM

## N#C[C@@]1(n2ccc(=O)[nH]c2=O)O[C@H](CO)C(O)C1O (stereo partly shown) [drawing 119]
SARS-CoV-2 [3]
  EC50: 20 nM
  EC90: 200 nM
SARS-CoV-2 [1]; [16]
  EC50: 4700 nM
SARS-CoV-2 [1]; [17]
  EC90: 8.5 µM
SARS-CoV-2 [5]
  EC50: 80 nM
  EC90: 700 nM

## CC(C)OC(=O)[C@H](C)N[P@](=O)(OC[C@H]1O[C@@](C#N)(n2ccc(N)nc2=O)C(O)C1O)Oc1ccccc1 (stereo partly shown) [drawing 120]
SARS-CoV-2 [3]
  EC50: 700 nM
  EC90: 2100 nM
SARS-CoV-2 [1]; [16]
  EC50: > 10000 nM
SARS-CoV-2 [1]; [17]
  EC90: > 10 µM
SARS-CoV-2 [5]
  EC50: > 10000 nM
  EC90: > 10000 nM

## CC(C)C(=O)OC[C@H]1O[C@@](C#N)(n2ccc(=O)[nH]c2=O)C(O)C1O (stereo partly shown) [drawing 121]
SARS-CoV-2 [3]
  EC50: 2100 nM
  EC90: 5700 nM
SARS-CoV-2 [1]; [16]
  EC50: > 10000 nM
SARS-CoV-2 [5]
  EC50: 200 nM
  EC90: 700 nM

## CC(C)C(=O)OC[C@H]1O[C@@](C#N)(n2ccc(N)nc2=O)C(O)C1O (stereo partly shown) [drawing 122]
SARS-CoV-2 [3]
  EC50: 500 nM
  EC90: 2500 nM
SARS-CoV-2 [1]; [16]
  EC50: 1200 nM
SARS-CoV-2 [1]; [17]
  EC90: 2.2 µM
SARS-CoV-2 [5]
  EC50: 1200 nM
  EC90: 4000 nM

## CCCCCCCC(=O)OC[C@H]1O[C@@](C#N)(n2ccc(N)nc2=O)C(O)C1O (stereo partly shown) [drawing 123]
SARS-CoV-2 [3]
  EC50: 700 nM
  EC90: 1700 nM
SARS-CoV-2 [1]; [16]
  EC50: 400 nM
SARS-CoV-2 [1]; [17]
  EC90: 1.1 µM
SARS-CoV-2 [5]
  EC50: 200 nM
  EC90: 1200 nM

## CC(C)[C@H](N)C(=O)OC1C(O)[C@](C#N)(n2ccc(N)nc2=O)O[C@@H]1CO (stereo partly shown) [drawing 124]
SARS-CoV-2 [3]
  EC50: 3300 nM
  EC90: 8300 nM
SARS-CoV-2 [1]; [16]
  EC50: 2300 nM
SARS-CoV-2 [1]; [17]
  EC90: 6.6 µM
SARS-CoV-2 [5]
  EC50: 300 nM
  EC90: 4300 nM

## N#C[C@@]1(n2ccc(=O)[nH]c2=O)O[C@H](CO)C(O)C1O (stereo partly shown) [drawing 130]
[6]
  CC50: > 100 µM
[9]
  CC50: 12.1 µM
[10]
  CC50: > 100 µM
[11]
  CC50: > 100 µM

## CC(C)OC(=O)[C@H](C)N[P@](=O)(OC[C@H]1O[C@@](C#N)(n2ccc(N)nc2=O)C(O)C1O)Oc1ccccc1 (stereo partly shown) [drawing 131]
[6]
  CC50: > 100 µM
[9]
  CC50: > 100 µM
[10]
  CC50: > 100 µM
[11]
  CC50: > 100 µM

## CC(C)C(=O)OC[C@H]1O[C@@](C#N)(n2ccc(=O)[nH]c2=O)C(O)C1O (stereo partly shown) [drawing 132]
[6]
  CC50: > 100 µM
[9]
  CC50: 39 µM
[10]
  CC50: 88.9 µM
[11]
  CC50: > 100 µM

## CC(C)C(=O)OC[C@H]1O[C@@](C#N)(n2ccc(N)nc2=O)C(O)C1O (stereo partly shown) [drawing 133]
[6]
  CC50: 73.8 µM
[9]
  CC50: 15.8 µM
[10]
  CC50: > 100 µM
[11]
  CC50: 63.1 µM

## CCCCCCCC(=O)OC[C@H]1O[C@@](C#N)(n2ccc(N)nc2=O)C(O)C1O (stereo partly shown) [drawing 134]
[6]
  CC50: 45.7 µM
[9]
  CC50: 3.7 µM
[10]
  CC50: 77.8 µM
[11]
  CC50: > 100 µM

## CC(C)[C@H](N)C(=O)OC1C(O)[C@](C#N)(n2ccc(N)nc2=O)O[C@@H]1CO (stereo partly shown) [drawing 135]
[6]
  CC50: 93.5 µM
[11]
  CC50: > 100 µM

## N#C[C@@]1(n2ccc(=O)[nH]c2=O)O[C@H](CO)C(O)C1O (stereo partly shown) [drawing 137]
Omicron [12]
  EC50: 3.8 µM
  EC90: > 10 µM
Omicron [13]; Severe acute respiratory syndrome coronavirus 2, Caco-2, read-out: Anti-Omicron Activity (Caco-2) EC50
  EC50: > 10 µM
Omicron [13]; Severe acute respiratory syndrome coronavirus 2, Caco-2, read-out: Anti-Omicron Activity (Caco-2) EC90
  EC90: > 10 µM
